Reference: patent US10537525B2, “Methods and materials for delivering agents to liver tissue” (Mayo Foundation for Medical Education and Research, priority 2015, dated 2020)

How the values were obtained:
[1] = Endoscopic ultrasound-guided portal vein injection of irinotecan loaded microbeads vs jugular vein irinotecan: plasma and tissue concentrations (LC/MS); type: in vivo, pigs; details: control: unloaded irinotecan 100 mg into jugular vein; for concentration at 1 h: pig, intravenous
Experimental: Irinotecan and SN-38 (active metabolite) concentrations were determined using LC/MS.

[2] = control: unloaded doxorubicin 100 mg into jugular vein; plasma every 15 min for one hour
Experimental: (§1) The following was performed to assess the use of endoscopic ultrasound-guided portal vein injection of doxorubicin loaded microbeads to achieve increased intrahepatic concentrations of doxorubicin while decreasing systemic doxorubicin exposure.
(§2) Endoscopic ultrasound-guided portal vein injections were administered to 8 anesthetized 35 kg pigs transgastrically using a linear array echoendoscope and a 22 gauge fine-needle aspiration needle. Briefly, an Olympus linear array echoendoscope was inserted perorally to the stomach. The portal vein was identified by location, appearance, and pulse-wave Dopper signature. A 22 gauge fine-needle aspiration needle (Cook Medical) was advanced transgastrically into the portal vein.
(§3) In 4 animals, doxorubicin (100 mg) loaded onto 75-150 micron LC Beads® (Biocompatibles UK LTD) was injected. In 4 animals, saline was injected into the portal vein, and unloaded doxorubicin (100 mg) was injected into the jugular vein. Plasma was collected at baseline and every 15 minutes for one hour. At 1 hour, laparotomy was performed, and liver and heart samples were obtained and frozen. Bone marrow aspirates were obtained at one hour from the right anterior tibia. Doxorubicin concentrations were determined using LC/MS.

[3] = in vivo; details: pig, intravenous, 100 mg
Experimental: as §1, §2, §3

[4] = in vivo; details: male, pig, intravenous, 50 mg
Experimental: The aim was to determine 7-day safety, toxicity, and drug levels in the survival porcine model of endoscopic ultrasound-guided injections using irinotecan and doxorubicin loaded onto microbeads, as compared with systemic injection.
Sixteen anesthetized 35 kg male pigs were treated with 50 mg of either irinotecan (n=8) or doxorubicin (n=8). […] Within each drug group, half (n=4) were treated with endoscopic ultrasound-guided injections using 75-150 micron LC Beads (Biocompatibles) or endoscopic ultrasound-guided injection of drug not loaded onto microbeads into the IVC, using 22g endoscopic ultrasound needles via a transgastric approach. Each animal received only one drug by one route. Animals were observed twice daily for 7 days for clinical signs of toxicity. Whole blood for cell counts and plasma chemistries were obtained at baseline and at 7 days. […] 7 day drug levels were measured by LC-mass spectometry on plasma, bone marrow, liver and heart.

[5] = 50 mg, either group (microbeads portal vein or unloaded drug into IVC)

Irinotecan level, Peak Plasma ([1]; plasma every 15 min for one hour) [ng/mL]	concentration at 1 h ([1]; bone marrow, at one hour, read-out: Irinotecan level, Bone Marrow) [ng/mL]	concentration at 1 h ([1]; skeletal muscle at 1 hour, read-out: Irinotecan level, Muscle) [ng/g]	concentration at 1 h ([1]; liver, at 1 hour, read-out: Irinotecan level, Liver) [ng/g]	irinotecan level at 7 days (50 mg, any samples (plasma, bone marrow, liver, heart), microbeads portal vein or unloaded drug into IVC)	SN-38 (active metabolite of irinotecan) level at 7 days (irinotecan 50 mg, any samples (plasma, bone marrow, liver, heart), microbeads portal vein or unloaded drug into IVC)	Doxorubicin level, Peak Plasma [2] [ng/mL]	doxorubicin level in bone marrow at 7 days [5]	doxorubicin level in plasma at 7 days [5]	concentration at 1 h ([3]; bone marrow) [ng/mL]	concentration at 1 h ([3]; heart) [ng/g]	concentration at 1 h ([3]; liver) [ng/g]	concentration at 7 days ([4]; heart) [ng/g]	concentration at 7 days ([4]; liver) [ng/g]	SMILES
2762	1700	1060	3690	no detectable	no detectable	–	–	–	–	–	–	–	–	CCc1c2c(nc3ccc(OC(=O)N4CCC(N5CCCCC5)CC4)cc13)-c1cc3c(c(=O)n1C2)COC(=O)[C@]3(O)CC [Irinotecan, (S)-4,11-diethyl-3,4,12,14-tetrahydro-4-hydroxy-3,14-dioxo1H-pyrano[3′,4′:6,7]-indolizino[1,2-b]quinolin-9-yl-[1,4′bipiperidine]-1′-carboxylate]
–	–	–	–	–	–	2041	no drug was detected	no drug was detected	25	4800	6930	138	151	COc1cccc2c1C(=O)c1c(O)c3c(c(O)c1C2=O)C[C@@](O)(C(=O)CO)C[C@@H]3O[C@H]1C[C@H](N)[C@H](O)[C@H](C)O1 [doxorubicin, (7S,9S)-7-[(2R,4S,5S,6S)-4-amino-5-hydroxy-6-methyloxan-2-yl]oxy-6,9,11-trihydroxy-9-(2-hydroxyacetyl)-4-methoxy-8,10-dihydro-7H-tetracene-5,12-dione]
